Source: PubChem BioAssay AID2202557 (NIEHS Division of Translational Toxicology (DTT))
Calls of active or inactive are those of the source. No rule for the calls is given here.

Tested on: in vitro micronucleus assay, mammalian cells
Experiment: In vitro micronucleus assay, summary data

c1cc[n+]2c(c1)-c1cccc[n+]1CC2
outcome: active; positive

CCOC(=O)C1=C[C@]2(CC)CCCN3CCc4c(n1c1ccccc41)[C@@H]32
outcome: active; positive

NCP(=O)(O)O
outcome: inactive; negative

[Cl][In]([Cl])[Cl]
outcome: active; positive

CCc1cccc(C)c1N(C(=O)CCl)C(C)COC (stereo unspecified)
outcome: active; positive

CCCCCCOc1ccc(O)cc1
outcome: active; positive
